# Like-named read-outs stand apart in the source and are kept apart here.
# Key:
# 5-HT2A receptor = target: T1, 5-HT2A receptor (Homo sapiens, UniProt P28223); assay: FLIPR Ca2+ flux functional assay, 5-HT2A; type: cell-based
# T1 construct: host or cells: HEK293
# Description: Activity at 5-HT2A, 5-HT2B and 5-HT2C receptors was determined using a FLIPR Ca^2+ flux assay at WuXi AppTec Co. Ltd. (Hong Kong) Discovery Biology Unit according to their standard protocols. Briefly, stably transfected cells expressing the receptor of interest (HEK293 for 5-HT2A and 5-HT2C; CHO-K1 for 5-HT2B) were grown and plated in a 384 well plate and incubated at 37° C. and 5% CO2 overnight. A 250 mM stock solution of probenecid in FLIPR calcium assay buffer (10 mL) was freshly prepared and combined with a fluorescent dye (Fluo-4 Direct) to give a final assay concentration of 2.5 mM. Reference compounds were 4-fold serially diluted and the screening compounds were 3-fold serially diluted in 100% DMSO for 10 points using Agilent Bravo, and 750 nL was added to a 384 well compound plate using Echo along with 30 μL assay buffer. The fluorescent dye was then added to the assay plate along with assay buffer to a final volume of […]. The cell plate was incubated for 50 min at 37° C. and 5% CO2 and placed into the FLIPR Tetra along with the compound plate. 10 μL of references and compounds were then transferred from the compound plate into the cell plate and the fluorescent signal was read.
# 5-HT2B receptor = target: T2, 5-HT2B receptor (Homo sapiens, UniProt P41595); assay: cell-based
# T2 construct: host or cells: CHO-K1
# 5-HT2C receptor = target: T3, 5-HT2C receptor (Homo sapiens, UniProt P28335); assay: cell-based
# T3 construct: host or cells: HEK293
# T3 sequence (P28335 33-458): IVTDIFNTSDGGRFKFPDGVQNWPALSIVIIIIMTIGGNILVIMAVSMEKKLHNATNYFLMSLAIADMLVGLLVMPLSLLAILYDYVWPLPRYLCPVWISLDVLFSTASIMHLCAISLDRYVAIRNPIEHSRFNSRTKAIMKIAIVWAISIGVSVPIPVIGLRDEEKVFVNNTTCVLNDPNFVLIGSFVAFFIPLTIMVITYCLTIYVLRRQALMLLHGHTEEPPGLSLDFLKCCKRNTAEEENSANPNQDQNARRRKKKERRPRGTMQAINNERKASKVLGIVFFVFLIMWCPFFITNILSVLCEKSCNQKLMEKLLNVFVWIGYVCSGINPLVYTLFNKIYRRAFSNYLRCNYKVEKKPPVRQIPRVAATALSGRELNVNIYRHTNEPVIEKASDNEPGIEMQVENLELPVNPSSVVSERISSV
# [1] = agonist activity, Ca2+ flux, HEK293 cells
# [2] = agonist activity, Ca2+ flux, HEK293 cells, read-out: 5-HT2A EC50
# [3] = agonist activity, Ca2+ flux, CHO-K1 cells
# [4] = agonist activity, Ca2+ flux, CHO-K1 cells, read-out: 5-HT2B EC50
# [5] = agonist activity, Ca2+ flux, HEK293 cells, read-out: 5-HT2C EC50
# T2 sequence (P41595 whole entry): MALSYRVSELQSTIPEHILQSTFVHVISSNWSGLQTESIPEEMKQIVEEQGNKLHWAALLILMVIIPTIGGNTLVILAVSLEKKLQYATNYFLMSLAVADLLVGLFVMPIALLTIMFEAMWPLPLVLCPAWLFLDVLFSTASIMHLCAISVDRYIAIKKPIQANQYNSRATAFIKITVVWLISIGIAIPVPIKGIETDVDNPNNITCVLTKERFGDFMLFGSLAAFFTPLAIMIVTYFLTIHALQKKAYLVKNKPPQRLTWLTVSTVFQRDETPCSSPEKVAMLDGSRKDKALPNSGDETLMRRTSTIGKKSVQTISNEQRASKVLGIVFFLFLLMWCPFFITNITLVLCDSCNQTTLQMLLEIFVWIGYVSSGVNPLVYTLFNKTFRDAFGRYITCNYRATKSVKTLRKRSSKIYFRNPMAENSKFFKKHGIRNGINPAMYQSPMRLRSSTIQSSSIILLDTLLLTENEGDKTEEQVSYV
# T1 sequence (P28223 whole entry): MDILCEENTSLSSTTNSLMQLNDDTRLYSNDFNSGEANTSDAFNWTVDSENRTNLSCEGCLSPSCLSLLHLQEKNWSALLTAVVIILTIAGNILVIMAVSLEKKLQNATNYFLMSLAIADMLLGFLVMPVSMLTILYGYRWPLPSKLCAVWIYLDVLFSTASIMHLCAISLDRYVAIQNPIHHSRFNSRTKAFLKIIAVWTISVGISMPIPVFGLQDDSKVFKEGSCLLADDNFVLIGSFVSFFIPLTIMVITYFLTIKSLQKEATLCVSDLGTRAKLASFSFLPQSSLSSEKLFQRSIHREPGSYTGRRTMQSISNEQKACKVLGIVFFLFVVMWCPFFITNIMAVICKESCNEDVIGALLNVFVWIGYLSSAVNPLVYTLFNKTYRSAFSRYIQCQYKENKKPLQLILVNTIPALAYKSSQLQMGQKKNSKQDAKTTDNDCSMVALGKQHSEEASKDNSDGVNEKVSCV
Compound,Emax (5-HT2A receptor; [1]),EC50 (5-HT2A receptor; [2]),Emax (5-HT2B receptor; [3]),EC50 (5-HT2B receptor; [4]),Emax (5-HT2C receptor; [1]),EC50 (5-HT2C receptor; [5]),EC50 (5-HT2A receptor),EC50 (5-HT2B receptor),EC50 (5-HT2C receptor)
"Cc1ccc(O)c2c(CCN(C(C)C)C(C)C)c[nH]c12 [Example P-90, 3-(2-(diisopropylamino)ethyl)-7-methyl-1H-indol-4-ol]",95.1%,0.817 µM,15.7%,≥ 10 µM,50.2%,9.97 µM,–,–,–
"COc1ccc(C)c2[nH]cc(CCN(C)C)c12 [Example P-13, 2-(4-methoxy-7-methyl-1H-indol-3-yl)-N,N-dimethylethan-1-amine]",36.1%,0.107 µM,0.67%,> 10 µM,69.5%,0.056 µM,–,–,–
"COc1cc(C)c2[nH]cc(CCN(C)C)c2c1 [Example P-50, 2-(5-methoxy-7-methyl-1H-indol-3-yl)-N,N-dimethylethan-1-amine]",66.2%,0.064 µM,0.5%,> 10 µM,56.4%,0.538 µM,–,–,–
"COc1cc(F)c2[nH]cc(CCN(C)C(C)C)c2c1 [Example P-116, N-(2-(7-fluoro-5-methoxy-1H-indol-3-yl)ethyl)-N-methylpropan-2-amine]",60.2%,0.0157 µM,23.1%,0.136 µM,60.5%,0.72 µM,–,–,–
"CC(C)N(C)CCc1c[nH]c2cc(F)cc(F)c12 [Example P-149, N-(2-(4,6-difluoro-1H-indol-3-yl)ethyl)-N-methylpropan-2-amine]",66.8%,0.0524 µM,30.1%,≥ 10 µM,30.1%,–,–,–,–
"COc1c(F)ccc2[nH]cc(CCN(C(C)C)C(C)C)c12 [Example P-95, N-(2-(5-fluoro-4-methoxy-1H-indol-3-yl)ethyl)-N-isopropylpropan-2-amine]",93.2%,0.02 µM,96.3%,0.0216 µM,83%,0.26 µM,–,–,–
"CCN(CC)CCc1c[nH]c2ccc(F)c(F)c12 [Example P-145, 2-(4,5-difluoro-1H-indol-3-yl)-N,N-diethylethan-1-amine]",98.5%,0.0106 µM,51.5%,0.0233 µM,72.3%,0.102 µM,–,–,–
"CCN(C)CCc1c[nH]c2ccc(F)c(OC)c12 [Example P-92, N-ethyl-2-(5-fluoro-4-methoxy-1H-indol-3-yl)-N-methylethan-1-amine]",78%,0.00733 µM,25.1%,> 10 µM,75.3%,0.0179 µM,–,–,–
"Cc1cc(O)c2c(CCN(C)C)c[nH]c2c1 [Example P-12, 3-(2-(dimethylamino)ethyl)-6-methyl-1H-indol-4-ol]",67.8%,0.0804 µM,1.23%,> 10 µM,69.3%,0.144 µM,–,–,–
"CCN(CCc1c[nH]c2ccc(OC)c(C)c12)C(C)C [Example P-40, N-ethyl-N-(2-(5-methoxy-4-methyl-1H-indol-3-yl)ethyl)propan-2-amine]",78.4%,0.894 µM,33.8%,> 10 µM,0.71%,> 10 µM,–,–,–
"COc1c(F)ccc2[nH]cc(CCN(C)C)c12 [Example P-91, 2-(5-fluoro-4-methoxy-1H-indol-3-yl)-N,N-dimethylethan-1-amine]",74.9%,0.00233 µM,4.57%,> 10 µM,109%,0.00124 µM,–,–,–
"CCN(CC)CCc1c[nH]c2c(C)ccc(O)c12 [Example P-88, 3-(2-(diethylamino)ethyl)-7-methyl-1H-indol-4-ol]",61.1%,0.189 µM,-0.07%,≥ 10 µM,25.4%,1.3 µM,–,–,–
"CCN(CC)CCc1c[nH]c2ccc3oc(C)nc3c12 [Example P-134, N,N-diethyl-2-(2-methyl-6H-oxazolo[4,5-e]indol-8-yl)ethan-1-amine]",77.5%,–,56.4%,–,91.3%,–,0.0203 µM,0.0599 µM,0.429 µM
"Cc1nc2c(ccc3[nH]cc(CCN(C(C)C)C(C)C)c32)o1 [Example P-135, N-isopropyl-N-(2-(2-methyl-6H-oxazolo[4,5-e]indol-8-yl)ethyl)propan-2-amine]",78.3%,0.0251 µM,91.3%,0.0314 µM,99.2%,2.07 µM,–,–,–
"Cc1ccc2[nH]cc(CCN(C)C)c2c1O [Example P-10, 3-(2-(dimethylamino)ethyl)-5-methyl-1H-indol-4-ol]",63.1%,0.0551 µM,-0.21%,> 10 µM,71.2%,0.0728 µM,–,–,–
"CC(C)N(C)CCc1c[nH]c2cc(F)c(F)cc12 [Example P-155, N-(2-(5,6-difluoro-1H-indol-3-yl)ethyl)-N-methylpropan-2-amine]",73.4%,0.0104 µM,45.4%,≥ 10 µM,83.7%,0.0507 µM,–,–,–
"COc1cc(F)cc2[nH]cc(CCN(C)C(C)C)c12 [Example P-97, N-(2-(6-fluoro-4-methoxy-1H-indol-3-yl)ethyl)-N-methylpropan-2-amine]",65.4%,0.00676 µM,14.2%,> 10 µM,59.8%,0.336 µM,–,–,–
"CN(C)CCc1c[nH]c2ccc3oc(=O)[nH]c3c12 [Example P-125, 8-(2-(dimethylamino)ethyl)-1,6-dihydro-2H-oxazolo[4,5-e]indol-2-one]",75.5%,–,42.5%,–,56.7%,–,0.0485 µM,0.0143 µM,0.538 µM
"COc1cc2c(CCN(C)C)c[nH]c2cc1C [Example P-7, 2-(5-methoxy-6-methyl-1H-indol-3-yl)-N,N-dimethylethan-1-amine]",81.9%,0.0158 µM,1.71%,> 10 µM,81.1%,0.11 µM,–,–,–
"CC(C)N(CCc1c[nH]c2ccc3ocnc3c12)C(C)C [Example P-130, N-(2-(6H-oxazolo[4,5-e]indol-8-yl)ethyl)-N-isopropylpropan-2-amine]",87.5%,0.0181 µM,114%,0.00754 µM,104%,0.203 µM,–,–,–
"CC(C)N(C)CCc1c[nH]c2ccc3ocnc3c12 [Example P-128, N-(2-(6H-oxazolo[4,5-e]indol-8-yl)ethyl)-N-methylpropan-2-amine]",83.8%,0.0143 µM,16.8%,> 10 µM,58%,0.0678 µM,–,–,–
"CN(C)CCc1c[nH]c2c(F)c(F)ccc12 [Example P-159, 2-(6,7-difluoro-1H-indol-3-yl)-N,N-dimethylethan-1-amine]",62%,0.0286 µM,3.79%,> 10 µM,99.3%,0.0365 µM,–,–,–
"CN(C)CCc1c[nH]c2cc3c(cc12)OCC3 [Example P-1, 2-(3,5-dihydro-2H-furo[2,3-f]indol-7-yl)-N,N-dimethylethan-1-amine]",63.9%,0.139 µM,2.92%,> 10 µM,82.3%,0.134 µM,–,–,–
"CCN(C)CCc1c[nH]c2cc(F)c(F)cc12 [Example P-154, 2-(5,6-difluoro-1H-indol-3-yl)-N-ethyl-N-methylethan-1-amine]",92.4%,0.0148 µM,17.6%,≥ 10 µM,102%,0.0249 µM,–,–,–
"COc1ccc(C)c2[nH]cc(CCN(C)C(C)C)c12 [Example P-81, N-(2-(4-methoxy-7-methyl-1H-indol-3-yl)ethyl)-N-methylpropan-2-amine]",41.4%,0.126 µM,0.59%,> 10 µM,38.8%,0.764 µM,–,–,–
"Cc1nc2c(ccc3[nH]cc(CCN(C)C(C)C)c32)o1 [Example P-133, N-methyl-N-(2-(2-methyl-6H-oxazolo[4,5-e]indol-8-yl)ethyl)propan-2-amine]",78.4%,0.0279 µM,22.4%,0.0686 µM,72.6%,0.894 µM,–,–,–
